Results reported in article PMC10574143, “Exploring the Solubility Limits of Edaravone in Neat Solvents and Binary Mixtures: Experimental and Machine Learning Study” (Molecules, 2023).

What was measured:
[1] = solubility data curation, three-parameter van't Hoff consensus; type: physicochemical; conditions: methanol, van't Hoff fit to data of refs 21, 26
Excerpt: The dataset characterizing edaravone solubility is an accumulation of values collected from available literature sources augmented with a series of new measurements reported in this paper, which are summarized in Supplementary Section S1. There are three accounts documenting the temperature-dependent solubility of the titled compound in fifteen neat solvents including alcohols, esters, some aprotic solvents, and water. Moreover, nine binary solvent mixtures were used for EDA dissolution measurements at a range of temperatures with a variety of binary compositions. […] First of all, one can notice serious divergences in the reported solubility values for some systems. This inconsistency prohibits the direct use of such a collection for the training of models due to the inherent noise in the dataset, which is a frequently occurring problem intrinsic to diverse measurement protocols. […] Secondly, the solubility space is not represented uniformly due to different numbers of measurements for dissimilar temperature ranges and concentrations of solvent mixtures, which might overrepresent those systems studied more extensively in the dataset. Finally, the main focus in solubility determination was narrowed to polar protic solvents, with very limited representation of non-protic or diprotic solvents. To address the first two issues, the final collection was cured using commonly accepted model equations by fitting their parameters based on experimental mole fractions. Here, the three-parameter van’t Hoff and Jouyban–Acree equations were used for neat and binary solvents, respectively. In addition, temperature standardization was performed for a uniform representation of solubility in the final dataset. […] The complete list of experimental solubility data is provided in the Supporting Materials (see Section S2). As can be directly inferred from the plots presented in Figure 1, incongruences appear not only in the solubility values but also in their temperature trends. […] Since only an arbitrary decision would allow the rejection of either of the measurement series, the final solubility dataset was constructed based on the predictions of the van’t Hoff equation, parametrized using all available experimental data. Moreover, temperature normalization was adopted by accepting data between 0 °C and 50 °C with 5 °C intervals. […] Fortunately, the majority of saturated EDA systems studied suffered experimentally from much smaller deviations, as detailed in the Supplementary Materials (see Section S2.1), and the ones presented in Figure 1 show the worst extremes.
The datasets used for model development underwent curing and unification. All solubility data in neat solvents were analyzed using a simple thermodynamic model relying on the fundamental van’t Hoff equation extended for the temperature dependence of the equilibrium constant by a polynomial fit. The following equation (1) lnxEcur=A+B/T+C/T^2 has three adjustable parameters, the values of which were computed by minimizing root mean square deviations (RMSD) between experimental and computed values. The collection of obtained parameter values for all analyzed systems (including literature data), along with graphical illustrations, is provided in the Supplementary Materials (see Section S2, Table S3 and Figure S2).

[2] = poor aqueous solubility; no reference given; cited from earlier work

log(x1consensus) ([1]; x2*=1.00, 0 °C): -1.93 | log(x1consensus) ([1]; x2*=1.00, 5 °C): -1.87 | log(x1consensus) ([1]; x2*=1.00, 10 °C): -1.80 | log(x1consensus) ([1]; x2*=1.00, 15 °C): -1.73 | log(x1consensus) ([1]; x2*=1.00, 20 °C): -1.66
Compound: CC1=NN(c2ccccc2)C(=O)C1 [Edaravone, 5-methyl-2-phenyl-4H-pyrazol-3-one]
Biopharmaceutics Classification System (BCS) category [2]: Class IV
